Experimental findings from US7074801B1, “Nitrogen-containing condensed cyclic compound having a pyrazolyl group as a substituent group and pharmaceutical composition thereof” (Eisai Co., Ltd., priority 2001, dated 2006) are described below.

pIC50: −log10 of the molar value. Where a name gives a salt, the structure may show the parent alone. Read-outs that look alike come from different tables or passages of the source.

In the experiment the test system is STAT6. The experiment is described as follows: Inhibitory test on STAT6 activation: IL-4-induced alkali phosphatase STAT6 reporter in 293 cells stably expressing the STAT6 gene and STAT6 reporter gene. In kind it is cell-based. To be noted: HEK293, 1 ng/ml human recombinant IL-4, 16 hours, 293 cells with STAT6 reporter, read-out: Inhibitory activity IC50 (concentration at which the alkali phosphatase activity induced by IL-4 was inhibited by 50%). How it is done:
The inhibitory action of the present compound on activation of STAT6 was evaluated according to the following experiments.
1) Construction of a STAT6 Reporter Gene
An oligonucleotide of SEQ ID NO:1 in which three STAT6-binding regions on a human immunoglobulin germline E gene promoter had been linked was mixed with its complementary chain, thermally denatured and annealed, and 5′- and 3′-ends thereof were cleaved with restriction enzymes Kpn I (Code No. 1068A, Takara Shuzo) and Xba I (Code No. 1093A, Takara Shuzo) respectively, and the resulting fragment was cloned into a Kpn I/Xba I site of pUG-BGH-PLAP vector (described in Molecular Pharmacology, 49:860–873, 1996). To induce a basic transcriptional factor, a TK promoter region of herpes virus was cloned into an Xba I/Hind III (Code No. 1060A, Takara Shuzo) site of the pUG-BGH-PLAP vector. To obtain a stably expressing cell strain, a neomycin resistance gene (PGK-neo expression cassette) was integrated with an Sal I (Code No. 1080A, Takara Shuzo) of this vector. Cloning of the TK promoter and PGK-neo expression cassette was carried out according to Molecular Pharmacology, 49:860–873, 1996.
The underlined sites are a Kpn I recognition site and Xba I recognition site respectively. 2) Construction of an STAT6 Expression Vector
An oligonucleotide of SEQ ID NO:2 containing an initiation codon of STAT6 gene and an oligonucleotide of SEQ ID NO:3 containing a stop codon were used, and total RNA was prepared from human peripheral blood cells by using RNeasy Mini kit (Code No. 74104, OIAGEN). Then, cDNA was prepared by reverse transcription reaction using Takara RNA LA PCR kit (Code No. RR012A, Takara Shuzo) and then subjected to PCR reaction with primers of SEQ ID NOS:2 and 3, to amplify the STAT6 gene. • (SEQ ID NO:2) 5′-[…]-3′ The underlined site is an EcoR I recognition site. • (SEQ ID NO:3) 5′-[…]-3′ The underlined site is an Xho I recognition site.
The PCR product was digested with EcoR I (Code No. 1040A, Takara Shuzo) and Xho I (1094A, Takara Shuzo), and the digested fragment was isolated on an agarose gel. The isolated fragment was integrated into a vector fragment obtained by digesting pcDNA3.1 (+) (Code No. U790-20, Invitrogen) vector with EcoRI/Xho I.
3) Introduction of the Gene and Preparation of a Stably Expressing Cell Strain
Human fetal kidney-derived 293 cells (American Type Culture Collection), 3.0×10^5 cells, were spread on a Falcon tissue culture 6-well plate (Code No. 35-3046, Becton Dickinson) and cultured overnight. 1.5 μg of the prepared STAT6 reporter gene, 1.5 μg of the STAT6 gene and 20 μl of lipofectamine (Code No. 18324-012, GIBCO BRL) were mixed in 0.3 ml OPTI-MEM medium (Code No. 31985-070) and left at room temperature for 20 minutes. Thereafter, 1.2 ml OPTI-MEM medium was further added to the cells washed with OPTI-MEM medium not containing fetal bovine serum, and the cells were cultured for 2 hours. 1.5 ml medium containing fetal bovine serum was added thereto, and the cells were cultured for additional 19 hours. The medium was exchanged with a fresh one, and Geneticin (Code No. G-5013, SIGMA) was added at a concentration of 1 mg/ml, and the cells were cultured, and chemical-resistant cells were selected. The resulting chemical-resistant cells were floated in a medium containing 1 mg/ml Geneticin, then spread at a density of 0.5 cell/well on a 96-well microplate (Code No. 35-3072, Becton Dickinson) and cloned to give a clone expressing alkali phosphatase in response to IL-4.
4) Inhibitory Test on STAT6 Activation
The cells stably expressing the STAT6 gene and STAT6 reporter gene and expressing alkali phosphatase in response to IL-4 were spread at a density of 5000 cells/180 μl/well on a 96-well microplate (Code No. 35-3072, Becton Dickinson) and cultured overnight. […]
(In a reporter assay the amount or activity of a reporter protein is the signal.)

Take `O=C(NCc1cccc(OC(F)F)c1)c1ccc(-c2cnc3ccc(-c4cn[nH]c4)cn23)cc1F` [Example 706, N1-[3-(Difluoromethoxy)benzyl]-2-fluoro-4-[6-(1H-4-pyrazolyl)imidazo[1,2-a]pyridin-3-yl]benzamide hydrochloride]: for the setting “Table 2”, the pIC50 was over 8.00.
The same measure, in the same setting: the same measure for `CS(=O)(=O)c1ccc(-c2ncnc3ccc(-c4c[nH]nc4-c4ccc(OC(F)(F)F)cc4)cc23)s1` [Example 892, 4-(5-Methylsulfonylthiophen-2-yl)-6-[3-(4-trifluoromethoxyphenyl)-1H-pyrazol-4-yl] quinazoline]: 7.00 to 8.00; for `CS(=O)(=O)c1ccc(-c2ncnc3ccc(-c4c[nH]nc4-c4ccc(F)cc4)cc23)o1` [Example 900, 6-[3-(4-Fluorophenyl)-1H-pyrazol-4-yl]-4-(5-methylsulfonylfuran-2-yl) quinazoline]: 7.00 to 8.00.
Turning to `N#Cc1ccc(-c2n[nH]cc2-c2ccc3ncc(-c4ccc(C(N)=O)cc4)n3c2)cc1` [Example 108, 4-{6-[3-(4-Cyanophenyl)-1H-4-pyrazolyl]imidazo[1,2-a]-pyridin-3-yl}benzamide dihydrochloride], where the note is “Table 1”, the pIC50 is over 8.00.
For the compound `O=S(=O)(Nc1cccc(N2CCN(c3ncnc4ccc(-c5cn[nH]c5)cc34)CC2)c1)c1cccs1` [Example 993, Thiophene-2-sulfonic acid (3-{4-[6-(1H-pyrazol-4-yl)quinazolin-4-yl]piperazin-1-yl)phenyl)amide tri-trifluoroacetate], the pIC50 (Table 2) is 7.00 to 8.00.
Turning to `CC(C)NC(=O)Nc1ccc(-c2cnc3ccc(-c4cn[nH]c4)cn23)cc1F` [Example 699, N-12-Fluoro-4-[6-(1H-4-pyrazolyl)imidazo[1,2-a]pyridin-3-yl] phenyl}-N′-isopropylurea hydrochloride], the pIC50 (Table 1) is 7.00 to 8.00.
Still for that read-out and setting: the same measure for `C[C@H](NC(=O)c1ccc(-c2cnc3ccc(-c4cn[nH]c4)cn23)cc1F)C(=O)c1ccc(F)cc1` [Example 672, N1-[(1S)-2-(4-Fluorophenyl)-1-methyl-2-oxoethyl]-2-fluoro-4-[6-(1H-4-pyrazolyl)imidazo[1,2-a]pyridin-3-yl]benzamide hydrochloride]: over 8.00.
Take `O=S1(=O)CCCN1c1cccc(N2CCN(c3ncnc4ccc(-c5cn[nH]c5)cc34)CC2)c1` [Example 1000, 4-{4-[3-(1,1-Dioxo-isothiazolidin-2-yl)phenyl]piperazin-1-yl}-6-(1H-pyrazol-4-yl)quinazoline tri-trifluoroacetate]: the pIC50 (Table 2) is over 8.00.
Consider `CN1CCN(c2ccnc3ccc(-c4c[nH]nc4-c4ccc(F)cc4)cc23)CC1` [Example 203, 6-[3-(4-Fluorophenyl)-1H-4-pyrazolyl]-4-(4-methylpiperazin-1-yl)quinoline dihydrochloride], for which the pIC50 (Table 1) is 7.00 to 8.00.
For the compound `CS(=O)(=O)c1ccc(C(=O)C2CCN(c3ncnc4ccc(-c5cn[nH]c5)cc34)CC2)s1` [Example 880, (5-Methylsulfonylthiophen-2-yl)-{1-[6-(1H-pyrazol-4-yl)quinazolin-4-yl]piperidin-4-yl}methanone trihydrochloride], the pIC50 (Table 2) is 7.00 to 8.00.
As for `N#CCC[C@H](O)c1nc2ccc(-c3cnc4ccc(-c5c[nH]nc5-c5ccc(F)cc5)cn34)cc2s1` [Example 628, (4S)-4-(6-{6-[3-(4-Fluorophenyl)-1H-4-pyrazolyl]imidazo-[1,2-a]pyridin-3-yl)-1,3-benzothiazol-2-yl)-4-hydroxybutane nitrile dihydrochloride], the pIC50 (Table 1) is over 8.00.
With `CS(=O)(=O)c1cnc(-c2cnc3ccc(-c4c[nH]nc4-c4c(F)cccc4F)cn23)s1` [Example 549, 6-[3-(2,6-Difluorophenyl)-1H-pyrazol-4-yl]-3-(5-methylsulfonylthiazol-2-yl)imidazo[1,2-a]pyridine], the pIC50 (Table 1) was over 8.00.
Regarding `CS(=O)(=O)c1ccc(-c2ncnc3ccc(-c4c[nH]nc4CN4CCOCC4)cc23)s1` [Example 904, 4-(5-Methylsulfonylthiophen-2-yl)-6-(3-morpholin-4-ylmethyl-1H-pyrazol-4-yl) quinazoline], the pIC50 (Table 2) was 6.00 to 7.00.
